One test addresses PI3Kα (Homo sapiens, UniProt P42336). The test can be described thus: PI3K biochemical assay, ATP consumption by luciferase-luciferin chemiluminescence. The conditions noted are these: 3 nM enzyme, 10 μM PIP2, approximately 2 h; read-out: IC50 in the PI3K-alpha assay. As for the experimental part: P13Kα activity was measured as the percent of ATP consumed following the kinase reaction using luciferase-luciferin-coupled chemiluminescence. Reactions were conducted in 384-well white, medium binding microliter plates (Greiner). Kinase reactions were initiated by combining test compounds. ATP, substrate (PIP2), and kinase in a 20 μL volume in a buffer solution. The standard P13Kalpha assay buffer was composed 50 mM Tris, pH 7.5, 1 mM EGTA, 10 mM MgCl2, 1 mM DTT and 0.03% CHAPS. The standard assay concentrations for enzyme, ATP, and substrate were 3 nM, IpM, and 10 μM, respectively. The reaction mixture was incubated at ambient temperature for approximately 2 h. Following the kinase reaction, a 10 μL aliquot of luciferase-luciferin mix (Promega Kinase-Glo) was added and the chemiluminescence signal measured using a Victor2 or EnVision (Perkin Elmer). Total ATP consumption was limited to 40-60% and IC50 values of control compounds correlate well with literature references. Substituting P13Kα with P13Kβ, […], or PI3Kδ, the inhibitory activity of the compounds for the other isoforms of P13-K were measured. For the P13Kβ and P13Kβ assays, enzyme concentrations were 10 nM and 4 nM. respectively. For the P13γ assay, enzyme concentration was 40 nM, the incubation time was 1 h, and the concentration of MgCl2 in the assay buffer was 5 mM.

The target of the next test is mTOR/GbL/Raptor (mTORC1) (Homo sapiens, UniProt P42345). The test is described as follows: mTOR/GbL/Raptor (mTORC1) ELISA assay, phosphorylation of 4E-BP1. The conditions noted are these: 0.2 nM mTORC1, 40 uM ATP, 50 nM NHis-tagged 4E-BP1, 120 minutes; read-out: IC50 in this assay (mTORC1 ELISA). The test is classed as biochemical. Put shortly: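 Phospho-4E-BP1 was quantified by luminescent ELISA (anti-phospho-4E-BP1 IgG, HRP-tagged secondary) after capture of the His-tagged substrate on Ni-chelate plates.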

SMILES strings stand for the structures.

Sequence of PI3Kα (P42336 whole entry): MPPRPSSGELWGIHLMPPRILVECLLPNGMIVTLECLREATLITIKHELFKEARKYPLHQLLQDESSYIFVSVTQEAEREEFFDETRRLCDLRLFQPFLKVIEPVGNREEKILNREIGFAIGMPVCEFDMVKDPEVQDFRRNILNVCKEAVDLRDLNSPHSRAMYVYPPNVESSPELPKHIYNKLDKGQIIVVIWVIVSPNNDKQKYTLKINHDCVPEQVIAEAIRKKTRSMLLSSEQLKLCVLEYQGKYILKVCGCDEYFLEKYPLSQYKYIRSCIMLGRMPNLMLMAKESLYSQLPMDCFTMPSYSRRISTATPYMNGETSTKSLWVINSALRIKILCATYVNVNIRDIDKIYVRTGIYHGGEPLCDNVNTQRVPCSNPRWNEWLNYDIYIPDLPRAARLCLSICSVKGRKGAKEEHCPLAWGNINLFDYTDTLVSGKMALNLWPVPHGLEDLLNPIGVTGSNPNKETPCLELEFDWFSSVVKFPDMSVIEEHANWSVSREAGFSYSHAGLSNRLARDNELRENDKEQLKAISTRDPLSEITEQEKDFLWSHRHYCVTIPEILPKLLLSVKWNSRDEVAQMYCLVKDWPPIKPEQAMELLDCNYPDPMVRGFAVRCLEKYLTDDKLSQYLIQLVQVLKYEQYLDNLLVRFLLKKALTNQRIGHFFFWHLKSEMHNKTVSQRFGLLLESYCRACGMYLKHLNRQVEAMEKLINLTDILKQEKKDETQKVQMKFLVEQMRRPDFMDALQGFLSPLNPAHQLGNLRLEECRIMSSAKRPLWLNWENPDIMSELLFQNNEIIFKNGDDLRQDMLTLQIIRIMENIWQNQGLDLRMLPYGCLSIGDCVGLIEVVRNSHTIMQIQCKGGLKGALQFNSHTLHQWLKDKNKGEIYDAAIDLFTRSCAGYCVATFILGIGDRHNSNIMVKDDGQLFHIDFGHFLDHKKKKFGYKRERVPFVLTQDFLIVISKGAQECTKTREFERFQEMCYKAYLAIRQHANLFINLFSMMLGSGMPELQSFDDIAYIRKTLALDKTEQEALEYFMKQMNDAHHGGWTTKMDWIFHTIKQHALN
Sequence of PI3Kα (P27986 whole entry partner): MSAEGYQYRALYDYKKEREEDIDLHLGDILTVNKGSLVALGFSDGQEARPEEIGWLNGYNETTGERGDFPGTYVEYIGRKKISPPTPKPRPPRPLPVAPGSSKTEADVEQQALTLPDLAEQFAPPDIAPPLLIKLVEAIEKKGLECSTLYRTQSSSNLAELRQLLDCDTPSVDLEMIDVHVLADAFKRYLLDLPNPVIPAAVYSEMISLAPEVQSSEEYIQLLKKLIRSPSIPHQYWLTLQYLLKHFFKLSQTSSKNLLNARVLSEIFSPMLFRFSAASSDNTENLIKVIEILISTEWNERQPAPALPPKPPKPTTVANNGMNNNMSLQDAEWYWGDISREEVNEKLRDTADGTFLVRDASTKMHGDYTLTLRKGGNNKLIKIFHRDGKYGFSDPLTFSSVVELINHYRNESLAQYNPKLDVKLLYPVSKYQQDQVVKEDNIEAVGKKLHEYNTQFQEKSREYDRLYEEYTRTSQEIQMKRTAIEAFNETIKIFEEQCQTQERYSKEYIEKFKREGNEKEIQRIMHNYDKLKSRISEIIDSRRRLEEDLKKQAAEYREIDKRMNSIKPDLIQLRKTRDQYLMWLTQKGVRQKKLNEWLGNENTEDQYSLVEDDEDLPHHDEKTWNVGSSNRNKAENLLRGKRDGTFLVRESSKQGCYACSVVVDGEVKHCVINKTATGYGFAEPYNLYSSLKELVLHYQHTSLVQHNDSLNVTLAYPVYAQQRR

As to `CCc1cc(-c2cnc3sc(N)nc3c2)cc2c1OCCN(c1nc(N)nc(C)c1C(C)C)C2` [Compound 17, 6-{4-[2-amino-6-methyl-5-(1-methylethyl)pyrimidin-4-yl]-9-ethyl-2,3,4,5-tetrahydro-1,4-benzoxazepin-7-yl}[1,3]thiazolo[5,4-b]pyridin-2-amine], the results for the IC50 at PI3Kα and at mTOR/GbL/Raptor (mTORC1) were 500 to 2500 nM and not above 100 nM, respectively.
The like results for `Cc1cc(-c2cnc(O)c(NS(C)(=O)=O)c2)cc2c1OCCN(c1nc(N)nc(C)c1C(C)C)C2` [Compound 19, N-(5-{4-[2-amino-6-methyl-5-(1-methylethyl)pyrimidin-4-yl]-9-methyl-2,3,4,5-tetrahydro-1,4-benzoxazepin-7-yl}-2-hydroxypyridin-3-yl)methanesulfonamide] were, in that order, 500 to 2500 nM and not above 100 nM.
Taken in the same sequence, the figures for `CCNC(=O)c1sc(N2CCOc3c(C)cc(-c4cnc(Cl)c(NS(C)(=O)=O)c4)cc3C2)nc1C(C)C` [Compound 33, 2-[7-{6-chloro-5-[(methylsulfonyl)amino]pyridin-3-yl}-9-methyl-2,3-dihydro-1,4-benzoxazepin-4(5H)-yl]-N-ethyl-4-(1-methylethyl)-1,3-thiazole-5-carboxamide] were 500 to 2500 nM and 100 to 500 nM.
Taken in the same sequence, the figures for `COC(=O)c1ccc(-c2cc(C)c3c(c2)CN(c2nc(N)nc(C)c2C(C)C)CCO3)cc1OC` [Compound 68, methyl 4-{4-[2-amino-6-methyl-5-(1-methylethyl)pyrimidin-4-yl]-9-methyl-2,3,4,5-tetrahydro-1,4-benzoxazepin-7-yl}-2-(methyloxy)benzoate] were 500 to 2500 nM and 100 to 500 nM.
In the case of `Cc1cc(-c2cccc(N)c2)cc2c1OCCN(c1nc(N)nc(C)c1C(C)C)C2` [Compound 69, 4-[7-(3-aminophenyl)-9-methyl-2,3-dihydro-1,4-benzoxazepin-4(5H)-yl]-6-methyl-5-(1-methylethyl)pyrimidin-2-amine], the IC50 was in the range of 500 to 2500 nM on PI3Kα and 100 to 500 nM on mTOR/GbL/Raptor (mTORC1).
`C=Cc1cnc(N)nc1N1CCOc2c(C)cc(-c3cnc4sc(N)nc4c3)cc2C1` [Compound 89, 6-[4-(2-amino-5-ethenylpyrimidin-4-yl)-9-methyl-2,3,4,5-tetrahydro-1,4-benzoxazepin-7-yl][1,3]thiazolo[5,4-b]pyridin-2-amine]: the IC50 on PI3Kα and on mTOR/GbL/Raptor (mTORC1) was not above 100 nM each time.
Take `Cc1cc(-c2cn(C)nc2C)cc2c1OCCN(c1nc(N)nc(C)c1C(C)C)C2` [Compound 109, 4-[7-(1,3-dimethyl-1H-pyrazol-4-yl)-9-methyl-2,3-dihydro-1,4-benzoxazepin-4(5H)-yl]-6-methyl-5-(1-methylethyl)pyrimidin-2-amine]: the IC50 is 500 to 2500 nM at PI3Kα and 100 to 500 nM at mTOR/GbL/Raptor (mTORC1).
Taken in the same sequence, the figures for `Cc1cc(-c2cnn(C)c2C)cc2c1OCCN(c1nc(N)nc(C)c1C(C)C)C2` [Compound 110, 4-[7-(1,5-dimethyl-1H-pyrazol-4-yl)-9-methyl-2,3-dihydro-1,4-benzoxazepin-4(5H)-yl]-6-methyl-5-(1-methylethyl)pyrimidin-2-amine] were 500 to 2500 nM and 100 to 500 nM.
The like results for `[2H]C1([2H])Oc2c(C)cc(-c3cnc4sc(N)nc4c3)cc2CN(c2nc(N)nc(C)c2C(C)C)C1([2H])[2H]` [Compound 122, 6-{4-[2-amino-6-methyl-5-(1-methylethyl)pyrimidin-4-yl]-2,3,4,5-tetrahydro-1,4-benzoxazepin-7-yl}[1,3]thiazolo[5,4-b]pyridin-2-amine-d_4_] were, in that order, not above 100 nM and not above 100 nM.
On to `CCN(Cc1nc(C)c(C(C)C)c(N2CCOc3c(C)cc(-c4cnc5nc[nH]c5c4)cc3C2)n1)CC(F)F` [Compound 171, N-ethyl-2,2-difluoro-N-({4-[7-(1H-imidazo[4,5-b]pyridin-6-yl)-9-methyl-2,3-dihydro-1,4-benzoxazepin-4(5H)-yl]-6-methyl-5-(1-methylethyl)pyrimidin-2-yl}methyl)ethanamine], for which the IC50 on mTOR/GbL/Raptor (mTORC1) lay within 100 to 500 nM.
The same measure, in the same setting: for `Cc1nc(C)c(C(C)C)c(N2CCOc3c(C)cc(-c4nnc(N)s4)cc3C2)n1` [Compound 172, 5-{4-[2,6-dimethyl-5-(1-methylethyl)pyrimidin-4-yl]-9-methyl-2,3,4,5-tetrahydro-1,4-benzoxazepin-7-yl}-1,3,4-thiadiazol-2-amine] the value was not above 100 nM; for `Cc1cc(-c2nnc(N)s2)cc2c1OCCN(c1ncnc(C)c1C(C)C)C2` [Compound 173, 5-{9-methyl-4-[6-methyl-5-(1-methylethyl)pyrimidin-4-yl]-2,3,4,5-tetrahydro-1,4-benzoxazepin-7-yl}-1,3,4-thiadiazol-2-amine], not above 100 nM.
On the same count and under the same terms, as for `Cc1ncc(C)c(N2CCOc3c(C)cc(-c4nnc(N)s4)cc3C2)n1` [Compound 174, 5-[4-(2,5-dimethylpyrimidin-4-yl)-9-methyl-2,3,4,5-tetrahydro-1,4-benzoxazepin-7-yl]-1,3,4-thiadiazol-2-amine], the figure is not above 100 nM; as for `Cc1ncc(C(C)C)c(N2CCOc3c(C)cc(-c4nnc(N)s4)cc3C2)n1` [Compound 175, 5-{9-methyl-4-[2-methyl-5-(1-methylethyl)pyrimidin-4-yl]-2,3,4,5-tetrahydro-1,4-benzoxazepin-7-yl}-1,3,4-thiadiazol-2-amine], not above 100 nM.
Still for that read-out and setting: for `Cc1cc(-c2nnc(N)s2)cc2c1OCCN(c1ncnc(C)c1C)C2` [Compound 176, 5-[4-(5,6-dimethylpyrimidin-4-yl)-9-methyl-2,3,4,5-tetrahydro-1,4-benzoxazepin-7-yl]-1,3,4-thiadiazol-2-amine] the value was not above 100 nM; for `Cc1cc(-c2nnc(N)s2)cc2c1OCCN(c1ncncc1C(C)C)C2` [Compound 177, 5-{9-methyl-4-[5-(1-methylethyl)pyrimidin-4-yl]-2,3,4,5-tetrahydro-1,4-benzoxazepin-7-yl}-1,3,4-thiadiazol-2-amine], not above 100 nM.
Consider `Cc1cnc(N)nc1N1CCOc2c(C)cc(-c3nnc(N)s3)cc2C1` [Compound 178, 4-[7-(5-amino-1,3,4-thiadiazol-2-yl)-9-methyl-2,3-dihydro-1,4-benzoxazepin-4(5H)-yl]-5-methylpyrimidin-2-amine], for which the 50% inhibitory concentration (IC50) on mTOR/GbL/Raptor (mTORC1) is not above 100 nM.
Still for that read-out and setting: as for `Cc1cc(-c2nnc(N)s2)cc2c1OCCN(c1nc(N)nc(C)c1C)C2` [Compound 179, 4-[7-(5-amino-1,3,4-thiadiazol-2-yl)-9-methyl-2,3-dihydro-1,4-benzoxazepin-4(5H)-yl]-5,6-dimethylpyrimidin-2-amine], the figure is not above 100 nM; as for `Cc1cc(-c2nnc(N)s2)cc2c1OCCN(c1nc(N)ncc1C(C)C)C2` [Compound 180, 4-[7-(5-amino-1,3,4-thiadiazol-2-yl)-9-methyl-2,3-dihydro-1,4-benzoxazepin-4(5H)-yl]-5-(1-methylethyl)pyrimidin-2-amine], not above 100 nM.
Turning to `C=Cc1c(C)nc(N)nc1N1CCOc2c(C)cc(-c3nnc(N)s3)cc2C1` [Compound 181, 4-[7-(5-amino-1,3,4-thiadiazol-2-yl)-9-methyl-2,3-dihydro-1,4-benzoxazepin-4(5H)-yl]-5-ethenyl-6-methylpyrimidin-2-amine], the IC50 on mTOR/GbL/Raptor (mTORC1) is not above 100 nM.

The values are drawn from patent US20140107100A1, “Benzoxazepines as Inhibitors of PI3K/mTOR and Methods of Their Use and Manufacture” (EXELIXIS, INC., priority 2010, published 2014).
